Measurements published in PubChem BioAssay (NCI).
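Five compound concentrations were applied to cells in 96-well plates for 48 hours; endpoints were derived by simple linear interpolation of the resulting dose-response curve. Abbreviation: GI50, concentration required for 50% inhibition of growth. TGI denotes the concentration required for complete inhibition of growth.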

What was measured:
Assay in all cases: inhibition of tumour cell growth, NCI panel, 48 h
BT-549 breast = system: BT-549 breast
HS 578T breast = system: HS 578T breast
LOX IMVI melanoma = system: LOX IMVI melanoma
M14 melanoma = system: M14 melanoma
MCF7 breast = system: MCF7 breast
PC-3 prostate = system: PC-3 prostate
T-47D breast = system: T-47D breast
U251 CNS = system: U251 CNS
UACC-62 melanoma = system: UACC-62 melanoma
UO-31 renal = system: UO-31 renal

SMILES	GI50 (BT-549 breast)	TGI (BT-549 breast)	GI50 (HS 578T breast)	TGI (HS 578T breast)	GI50 (LOX IMVI melanoma)	TGI (LOX IMVI melanoma)	GI50 (M14 melanoma)	TGI (M14 melanoma)	GI50 (MCF7 breast)	TGI (MCF7 breast)	GI50 (PC-3 prostate)	TGI (PC-3 prostate)	GI50 (T-47D breast)	TGI (T-47D breast)	GI50 (U251 CNS)	TGI (U251 CNS)	GI50 (UACC-62 melanoma)	TGI (UACC-62 melanoma)	GI50 (UO-31 renal)	TGI (UO-31 renal)
CNCc1ccc(-c2[nH]c3cc(F)cc4c3c2CCNC4=O)cc1	17400 nM	36.4 µM	19500 nM	67.9 µM	12.9 µM	29.2 µM	16.6 µM	32.7 µM	8.9 µM	35.5 µM	23600 nM	> 100 µM	16.8 µM	55 µM	16 µM	57.7 µM	15000 nM	29.8 µM	22200 nM	76.2 µM
COc1cc(/C=C2\C(=O)N(C)c3ccccc32)cc(OC)c1OC	33400 nM	> 100 µM	27400 nM	> 100 µM	11.1 µM	26.7 µM	16.8 µM	46.9 µM	20.3 µM	> 100 µM	10500 nM	> 100 µM	58 µM	> 100 µM	7.49 µM	41.7 µM	12000 nM	32.1 µM	22700 nM	> 100 µM
CC1=C2[C@@H](CC1)[C@]1(C)O[C@@](C3CC3)(C[C@H]1OC(=O)CO)[C@H]2OC(=O)/C=C/c1ccccc1	148 nM	7.74 µM	< 15.3 nM	0.845 µM	15.1 µM	31.8 µM	16.4 µM	32.3 µM	13 µM	31.3 µM	13000 nM	28.4 µM	12.1 µM	36.6 µM	15.6 µM	29.3 µM	14300 nM	29.4 µM	636 nM	20.8 µM
CNCc1cccc2c1OCCOCCOCCC(C)S(=O)(=O)c1ccc(cc1)-c1cnc(N)c(n1)C(=O)N2 (stereo not given)	1530 nM	5.23 µM	602 nM	3.09 µM	1.81 µM	5.41 µM	1.27 µM	3.03 µM	1.28 µM	14.6 µM	1490 nM	17.9 µM	3.62 µM	18.7 µM	1.15 µM	3.62 µM	1670 nM	3.3 µM	623 nM	2.09 µM
COc1cccc(C2C(C#N)=C(N)Oc3cc4c(cc32)OCO4)c1 (stereo not given)	87.4 nM	5 µM	31.6 nM	25.5 µM	0.234 µM	17.2 µM	0.059 µM	16.3 µM	0.0351 µM	18.1 µM	53.4 nM	39.5 µM	0.0502 µM	28 µM	0.0449 µM	12.1 µM	50.5 nM	> 53.8 µM	169 nM	> 100 µM
COc1c(O)c2c3c(c1OC)-c1ccccc1CC3N(S(=O)(=O)c1ccc(C)cc1)CC2 (stereo not given)	3460 nM	42.2 µM	1200 nM	4.03 µM	2.59 µM	> 50 µM	1.81 µM	> 50 µM	1.65 µM	23.5 µM	1650 nM	> 50 µM	1.56 µM	27.9 µM	1.69 µM	> 50 µM	2410 nM	> 50 µM	2020 nM	> 50 µM
COc1ccc(/C=C\c2cc(OC)c(OC)c(OC)c2)c(NS(=O)(=O)c2ccc(C(C)(C)C)cc2)c1O	467 nM	5.22 µM	521 nM	19.9 µM	0.667 µM	17.1 µM	0.191 µM	13.5 µM	0.133 µM	15.7 µM	369 nM	17 µM	16.8 µM	52.3 µM	0.597 µM	21.8 µM	113 nM	17.5 µM	982 nM	21.6 µM
COc1cc(N(CCC#N)CCC#N)ccc1/C(N=Nc1ccc(C(=O)O)cc1)=N/NC(=O)c1cc(Br)ccc1O	> 150 µg/mL	> 150 µg/mL	77.3 µg/mL	> 150 µg/mL	84.4 µg/mL	> 150 µg/mL	72 µg/mL	> 150 µg/mL	57.3 µg/mL	> 150 µg/mL	81 µg/mL	> 150 µg/mL	64.4 µg/mL	> 150 µg/mL	> 150 µg/mL	> 150 µg/mL	149 µg/mL	> 150 µg/mL	107 µg/mL	> 150 µg/mL
CCCCCCCCCCCCOC1C(C(CC(=O)N2CCN(Cc3ccc4c(c3)OCO4)CC2)NS(=O)(=O)c2cc(Cl)cc(Cl)c2)OC2OC(C)(C)OC21 (stereo not given)	27900 nM	> 100 µM	9170 nM	> 68.9 µM	16 µM	> 65.9 µM	61.1 µM	> 100 µM	4.45 µM	36.6 µM	4040 nM	> 100 µM	28.9 µM	> 100 µM	12.5 µM	> 100 µM	> 63300 nM	> 100 µM	32900 nM	> 100 µM
